# Laboratory results reported in patent US9212182B2, “Bicyclic sulfonamide compounds as sodium channel inhibitors” (AMGEN INC., priority 2013, dated 2015).
# Biological target: Nav 1.7 (Homo sapiens (Human), UniProt Q15858)
# Assay: in-vitro Nav 1.7 PX (IC50)
# Format: cell-based
# Details: not given
# Nav 1.7, sequence (Q15858 whole entry): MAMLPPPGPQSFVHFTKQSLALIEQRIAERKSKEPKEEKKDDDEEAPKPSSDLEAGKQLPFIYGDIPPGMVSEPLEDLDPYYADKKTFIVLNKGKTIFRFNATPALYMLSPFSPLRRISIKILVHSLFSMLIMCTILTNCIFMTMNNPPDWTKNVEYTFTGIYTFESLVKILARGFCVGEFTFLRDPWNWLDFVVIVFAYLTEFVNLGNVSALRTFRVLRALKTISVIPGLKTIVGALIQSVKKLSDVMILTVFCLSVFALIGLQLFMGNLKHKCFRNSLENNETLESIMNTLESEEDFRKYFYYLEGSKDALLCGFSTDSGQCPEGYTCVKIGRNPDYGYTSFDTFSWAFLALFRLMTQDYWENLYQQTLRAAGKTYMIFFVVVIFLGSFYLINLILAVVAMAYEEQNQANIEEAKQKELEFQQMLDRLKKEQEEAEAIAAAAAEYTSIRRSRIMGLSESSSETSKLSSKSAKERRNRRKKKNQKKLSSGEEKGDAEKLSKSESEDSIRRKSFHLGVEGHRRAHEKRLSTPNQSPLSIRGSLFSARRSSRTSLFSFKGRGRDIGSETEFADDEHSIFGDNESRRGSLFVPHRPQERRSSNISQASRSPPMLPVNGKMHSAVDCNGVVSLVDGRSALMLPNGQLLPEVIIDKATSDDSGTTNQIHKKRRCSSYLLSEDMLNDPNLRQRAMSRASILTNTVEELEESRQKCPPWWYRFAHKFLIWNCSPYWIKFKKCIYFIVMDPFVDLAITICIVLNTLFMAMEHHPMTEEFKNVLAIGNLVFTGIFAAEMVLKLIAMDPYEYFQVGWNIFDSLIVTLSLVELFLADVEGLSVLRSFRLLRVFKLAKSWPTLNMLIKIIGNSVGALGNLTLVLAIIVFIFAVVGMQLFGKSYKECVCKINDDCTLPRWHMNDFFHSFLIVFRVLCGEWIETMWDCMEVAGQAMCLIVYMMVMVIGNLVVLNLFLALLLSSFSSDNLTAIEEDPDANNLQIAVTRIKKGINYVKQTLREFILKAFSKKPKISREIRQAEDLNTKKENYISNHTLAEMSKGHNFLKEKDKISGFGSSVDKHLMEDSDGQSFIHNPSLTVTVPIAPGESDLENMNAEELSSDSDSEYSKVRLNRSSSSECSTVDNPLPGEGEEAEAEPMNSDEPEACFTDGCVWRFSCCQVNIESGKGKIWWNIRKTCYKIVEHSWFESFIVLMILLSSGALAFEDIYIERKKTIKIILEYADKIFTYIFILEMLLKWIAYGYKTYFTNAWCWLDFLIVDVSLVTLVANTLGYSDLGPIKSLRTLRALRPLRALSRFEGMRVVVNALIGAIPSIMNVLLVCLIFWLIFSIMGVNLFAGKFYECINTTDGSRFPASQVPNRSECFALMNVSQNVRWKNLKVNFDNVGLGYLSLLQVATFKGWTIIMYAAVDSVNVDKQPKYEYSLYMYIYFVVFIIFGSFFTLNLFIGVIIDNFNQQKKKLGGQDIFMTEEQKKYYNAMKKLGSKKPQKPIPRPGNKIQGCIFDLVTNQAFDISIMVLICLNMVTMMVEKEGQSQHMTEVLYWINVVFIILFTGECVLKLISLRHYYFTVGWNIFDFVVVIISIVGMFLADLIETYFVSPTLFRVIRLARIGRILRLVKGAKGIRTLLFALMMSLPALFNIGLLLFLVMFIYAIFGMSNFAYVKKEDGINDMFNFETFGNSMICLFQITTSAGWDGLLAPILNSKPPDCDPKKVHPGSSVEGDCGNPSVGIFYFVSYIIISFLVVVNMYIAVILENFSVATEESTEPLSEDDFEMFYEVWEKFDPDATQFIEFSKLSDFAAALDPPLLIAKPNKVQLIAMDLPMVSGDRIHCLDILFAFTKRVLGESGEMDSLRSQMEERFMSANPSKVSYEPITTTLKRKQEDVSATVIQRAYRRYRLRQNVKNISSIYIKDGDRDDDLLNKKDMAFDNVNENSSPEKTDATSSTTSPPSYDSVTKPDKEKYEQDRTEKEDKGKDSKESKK
row,IC50,SMILES
1,121 nM,"COc1ccc(C#CC2CCCC2)cc1-n1c(=O)ccc2cc(S(=O)(=O)Nc3ccon3)ccc21 [Example 1147, 1-(5-(cyclopentylethynyl)-2-methoxyphenyl)-N-3-isoxazolyl-2-oxo-1,2-dihydro-6-quinolinesulfonamide]"
2,127 nM,"COc1cc(-c2ccc(Cl)c(C)c2)ccc1-n1c(=O)cnc2cc(S(=O)(=O)Nc3ncccn3)ccc21 [Example 1199, 1-(4′-chloro-3-methoxy-3′-methyl-4-biphenylyl)-2-oxo-N-2-pyrimidinyl-1,2-dihydro-6-quinoxalinesulfonamide]"
3,29 nM,"COc1cc(-c2cccc(OC(F)F)c2)c(F)cc1-n1c(=O)ccc2cc(S(=O)(=O)Nc3cccnn3)ccc21 (atropisomer, axis not shown; (P)) [Example 1172, (P)-1-(3′-(difluoromethoxy)-2-fluoro-5-methoxy-4-biphenylyl)-2-oxo-N-3-pyridazinyl-1,2-dihydro-6-quinolinesulfonamide]"
4,187 nM,"COc1nc(-c2ccc(F)cc2)c(Cl)cc1-n1c(=O)ccc2cc(S(=O)(=O)Nc3ccon3)ccc21 (atropisomer, axis not shown; (P)) [Example 1203, (P)-1-(5-chloro-6-(4-fluorophenyl)-2-methoxy-3-pyridinyl)-N-3-isoxazolyl-2-oxo-1,2-dihydro-6-quinolinesulfonamide]"
5,16 nM,"COc1cc(-c2ccc(Cl)c(C)c2)c(C)cc1-n1c(=O)ccc2cc(S(=O)(=O)Nc3ccon3)ccc21 (atropisomer, axis not shown; (P)) [Example 421, (P)-1-(4′-chloro-5-methoxy-2,3′-dimethyl-4-biphenylyl)-N-3-isoxazolyl-2-oxo-1,2-dihydro-6-quinolinesulfonamide]"
6,590 nM,"COc1cc(-c2cccc(OC(C)C)c2)ccc1-n1c(=O)ccc2cc(S(=O)(=O)Nc3nccc(C)n3)ccc21 (atropisomer, axis not shown; (P)) [Example 1206, (P)-1-(3-methoxy-3′-(1-methylethoxy)-4-biphenylyl)-N-(4-methyl-2-pyrimidinyl)-2-oxo-1,2-dihydro-6-quinolinesulfonamide]"

row,SMILES,IC50
1,"COc1cc(-c2cc(F)cc(Cl)c2)c(F)cc1-n1c(=O)ccc2cc(S(=O)(=O)Nc3ccon3)ccc21 (atropisomer, axis not shown; (M)) [Example 478, (M)-1-(3′-chloro-2,5′-difluoro-5-methoxy-4-biphenylyl)-N-3-isoxazolyl-2-oxo-1,2-dihydro-6-quinolinesulfonamide]",816 nM
2,"COc1cc(-c2cccc(F)c2)c(Cl)cc1-n1c(=O)ccc2cc(S(=O)(=O)Nc3ccon3)c(F)cc21 (atropisomer, axis not shown; (P)) [Example 545, (P)-1-(2-chloro-3′-fluoro-5-methoxy-4-biphenylyl)-7-fluoro-N-3-isoxazolyl-2-oxo-1,2-dihydro-6-quinolinesulfonamide]",10 nM
3,"COc1cc(-c2cccc(F)c2)c(Cl)cc1-n1c(=O)cc(C)c2cc(S(=O)(=O)Nc3ccon3)ccc21 [Example 567, 1-(2-chloro-3′-fluoro-5-methoxy-4-biphenylyl)-N-3-isoxazolyl-4-methyl-2-oxo-1,2-dihydro-6-quinolinesulfonamide]",162 nM

# Same assay, conditions: in-vitro Nav 1.7 PX data
row,IC50,SMILES
1,15 nM,"COc1cc(-c2ccc(-n3c(=O)ccc4cc(S(=O)(=O)Nc5ccon5)ccc43)c(OC)c2)ccc1C (atropisomer, axis not shown; (P)) [Example 686, (P)-1-(3,3′-dimethoxy-4′-methyl-4-biphenylyl)-N-3-isoxazolyl-2-oxo-1,2-dihydro-6-quinolinesulfonamide]"
2,26 nM,"COc1cc(-c2cccc(OC(C)C)c2)ccc1-n1c(=O)ccc2cc(S(=O)(=O)Nc3ccon3)ccc21 [Example 780, N-3-isoxazolyl-1-(3-methoxy-3′-(1-methylethoxy)-4-biphenylyl)-2-oxo-1,2-dihydro-6-quinolinesulfonamide]"
3,13 nM,"COc1cc(-c2ccc(F)c(C)c2)c(F)cc1-n1c(=O)ccc2cc(S(=O)(=O)Nc3ncco3)ccc21 [Example 943, 1-(2,4′-difluoro-5-methoxy-3′-methyl-4-biphenylyl)-N-1,3-oxazol-2-yl-2-oxo-1,2-dihydro-6-quinolinesulfonamide]"
4,12 nM,"COc1cc(-c2cc(C)ccc2Cl)ccc1-n1c(=O)ccc2cc(S(=O)(=O)Nc3ccon3)ccc21 [Example 1030, 1-(2′-chloro-3-methoxy-5′-methyl-4-biphenylyl)-N-3-isoxazolyl-2-oxo-1,2-dihydro-6-quinolinesulfonamide]"
5,29 nM,"COc1ccc(-c2cc(F)cc(Cl)c2)cc1-n1c(=O)ccc2cc(S(=O)(=O)Nc3ccncn3)ccc21 (atropisomer, axis not shown; (P)) [Example 611, (P)-1-(3′-chloro-5′-fluoro-4-methoxy-3-biphenylyl)-2-oxo-N-4-pyrimidinyl-1,2-dihydro-6-quinolinesulfonamide]"
6,5 nM,"COc1cc(-c2cc(OC)c(-n3c(=O)ccc4cc(S(=O)(=O)Nc5ccon5)ccc43)cc2F)ccc1Cl [Example 700, 1-(4′-chloro-2-fluoro-3′,5-dimethoxy-4-biphenylyl)-N-3-isoxazolyl-2-oxo-1,2-dihydro-6-quinolinesulfonamide]"
7,795 nM,"COc1cc(-c2cncc(F)c2)c(F)cc1-n1c(=O)ccc2cc(S(=O)(=O)Nc3ccon3)ccc21 [Example 730, 1-(5-fluoro-4-(5-fluoro-3-pyridinyl)-2-methoxyphenyl)-N-3-isoxazolyl-2-oxo-1,2-dihydro-6-quinolinesulfonamide]"
8,215 nM,"COc1ccc(-c2ccc(F)cc2)cc1-n1c(=O)ccc2cc(S(=O)(=O)Nc3ccon3)ccc21 [Example 844, 1-(4′-fluoro-4-methoxy-3-biphenylyl)-N-3-isoxazolyl-2-oxo-1,2-dihydro-6-quinolinesulfonamide]"
9,104 nM,"COc1cc(-c2ccccc2)c(F)cc1-n1c(=O)ccc2cc(S(=O)(=O)Nc3ccon3)ccc21 [Example 701, 1-(2-fluoro-5-methoxy-4-biphenylyl)-N-3-isoxazolyl-2-oxo-1,2-dihydro-6-quinolinesulfonamide]"
10,114 nM,"COc1cc(C#CC2CCCC2)c(F)cc1-n1c(=O)ccc2cc(S(=O)(=O)Nc3ncc(F)cn3)ccc21 [Example 1135, 1-(4-(cyclopentylethynyl)-5-fluoro-2-methoxyphenyl)-N-(5-fluoro-2-pyrimidinyl)-2-oxo-1,2-dihydro-6-quinolinesulfonamide]"
11,69 nM,"COc1cc(CC2CCC2)c(F)cc1-n1c(=O)ccc2cc(S(=O)(=O)Nc3ccon3)ccc21 [Example 1078, 1-(4-(cyclobutylmethyl)-5-fluoro-2-methoxyphenyl)-N-3-isoxazolyl-2-oxo-1,2-dihydro-6-quinolinesulfonamide]"
12,10 nM,"COc1cc([C@H]2CC[C@@H](C)CC2)c(F)cc1-n1c(=O)ccc2cc(S(=O)(=O)Nc3ccon3)ccc21 [Example 1083, 1-(5-fluoro-2-methoxy-4-(cis-4-methylcyclohexyl)phenyl)-N-3-isoxazolyl-2-oxo-1,2-dihydro-6-quinolinesulfonamide, 1-(5-fluoro-2-methoxy-4-(trans-4-methylcyclohexyl)phenyl)-N-3-isoxazolyl-2-oxo-1,2-dihydro-6-quinolinesulfonamide]"
13,6 nM,"COc1cc(-c2cc(F)cc(C(F)(F)F)c2)ccc1-n1c(=O)ccc2cc(S(=O)(=O)Nc3cccnn3)ccc21 [Example 1095, 1-(3′-fluoro-3-methoxy-5′-(trifluoromethyl)-4-biphenylyl)-2-oxo-N-3-pyridazinyl-1,2-dihydro-6-quinolinesulfonamide]"

# Same assay, conditions: in-vitro Nav 1.7 PX data (PatchXpress)
row,IC50,SMILES
1,312 nM,"Cc1cc(-c2cc(OCC#N)c(-n3c(=O)ccc4cc(S(=O)(=O)Nc5ccon5)ccc43)cc2F)ccc1Cl [Example 622, 1-(4′-chloro-5-(cyanomethoxy)-2-fluoro-3′-methyl-[1,1′-biphenyl]-4-yl)-N-(isoxazol-3-yl)-2-oxo-1,2-dihydroquinoline-6-sulfonamide]"
2,195 nM,"O=c1ccc2cc(S(=O)(=O)Nc3cccnn3)ccc2n1-c1ccc(-c2cc(F)cc(F)c2)cc1C1CC1 [Example 1042, 1-(3-cyclopropyl-3′,5′-difluoro-4-biphenylyl)-2-oxo-N-3-pyridazinyl-1,2-dihydro-6-quinolinesulfonamide]"
3,6500 nM,"O=c1ccc2cc(S(=O)(=O)Nc3nncs3)ccc2n1-c1ccc(-c2cc(F)cc(F)c2)cc1C1CC1 [Example 1047, 1-(3-cyclopropyl-3′,5′-difluoro-4-biphenylyl)-2-oxo-N-1,3,4-thiadiazol-2-yl-1,2-dihydro-6-quinolinesulfonamide]"
4,1430 nM,"COc1cc(Br)ccc1-n1c(=O)ccc2cc(S(=O)(=O)Nc3cccnn3)ccc21 [Example 1050, 1-(4-bromo-2-methoxyphenyl)-2-oxo-N-3-pyridazinyl-1,2-dihydro-6-quinolinesulfonamide]"

# Same assay, conditions: in-vitro PatchXpress (PX)
row,IC50,SMILES
1,8040 nM,"COc1cc(-c2cncc(Cl)c2)c(F)cc1-n1c(=O)ccc2cc(S(=O)(=O)Nc3ccon3)ccc21 (atropisomer, axis not shown; (P)) [Example 408, (P)-1-(4-(5-chloro-3-pyridinyl)-5-fluoro-2-methoxyphenyl)-N-3-isoxazolyl-2-oxo-1,2-dihydro-6-quinolinesulfonamide]"
2,495 nM,"COc1cc(N2CC(C(F)(F)F)C2)c(F)cc1-n1c(=O)ccc2cc(S(=O)(=O)Nc3ccon3)ccc21 [Example 530, 1-(5-fluoro-2-methoxy-4-(3-(trifluoromethyl)-1-azetidinyl)phenyl)-N-3-isoxazolyl-2-oxo-1,2-dihydro-6-quinolinesulfonamide]"
3,> 10000 nM,"COc1cc(-c2ccc(C#N)c(Cl)c2)c(F)cc1-n1c(=O)ccc2cc(S(=O)(=O)Nc3ccon3)ccc21 (atropisomer, axis not shown; (M)) [Example 521, (M)-1-(3′-chloro-4′-cyano-2-fluoro-5-methoxy-4-biphenylyl)-N-3-isoxazolyl-2-oxo-1,2-dihydro-6-quinolinesulfonamide]"
4,4740 nM,"COc1cc(-c2cccc(C)c2)c(F)cc1-n1c(=O)ccc2cc(S(=O)(=O)Nc3ccon3)ccc21 (atropisomer, axis not shown; (M)) [Example 523, (M)-1-(2-fluoro-5-methoxy-3′-methyl-4-biphenylyl)-N-3-isoxazolyl-2-oxo-1,2-dihydro-6-quinolinesulfonamide]"
